Patent publication US12357619B2, “Noradrenergic and specific serotonergic anxiolytic and antidepressant, method for the production and use thereof” (ALLA CHEM, LLC, priority 2020, dated 2025)

Assays:
Experiment in all cases: Receptor activities, Ki (Table 1)
Format in all cases: binding
Adrenergic α1A = target: T1, Adrenergic α1A (Homo sapiens, UniProt P35348)
T1 sequence (P35348 1-466): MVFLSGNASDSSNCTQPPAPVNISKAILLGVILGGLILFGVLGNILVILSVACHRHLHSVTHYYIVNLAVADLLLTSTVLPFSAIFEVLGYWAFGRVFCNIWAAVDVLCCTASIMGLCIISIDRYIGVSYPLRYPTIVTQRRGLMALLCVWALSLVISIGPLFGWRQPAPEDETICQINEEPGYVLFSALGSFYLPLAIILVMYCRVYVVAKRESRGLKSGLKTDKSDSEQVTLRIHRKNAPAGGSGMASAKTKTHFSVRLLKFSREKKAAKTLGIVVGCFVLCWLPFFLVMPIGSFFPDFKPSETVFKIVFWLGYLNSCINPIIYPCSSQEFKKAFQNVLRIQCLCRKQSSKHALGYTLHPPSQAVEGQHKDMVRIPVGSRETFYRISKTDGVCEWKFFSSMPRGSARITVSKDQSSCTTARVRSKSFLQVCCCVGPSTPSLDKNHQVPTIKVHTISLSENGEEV

Serotonin 5-HT1A = target: T2, Serotonin 5-HT1A (Homo sapiens, UniProt P08908)
T2 sequence (P08908 1-422): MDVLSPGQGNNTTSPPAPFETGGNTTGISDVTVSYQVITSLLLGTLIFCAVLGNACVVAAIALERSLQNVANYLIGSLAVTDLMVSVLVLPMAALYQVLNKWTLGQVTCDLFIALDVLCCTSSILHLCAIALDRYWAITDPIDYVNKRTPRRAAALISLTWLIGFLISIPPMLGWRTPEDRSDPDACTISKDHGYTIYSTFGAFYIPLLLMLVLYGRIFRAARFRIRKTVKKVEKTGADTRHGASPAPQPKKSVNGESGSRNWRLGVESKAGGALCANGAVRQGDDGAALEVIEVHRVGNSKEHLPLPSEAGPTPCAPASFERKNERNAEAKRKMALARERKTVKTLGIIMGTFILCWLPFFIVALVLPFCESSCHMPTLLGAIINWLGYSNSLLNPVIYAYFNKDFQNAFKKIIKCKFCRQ

Adrenergic α2A = target: T3, Adrenergic α2A (Homo sapiens, UniProt P08913)
T3 sequence (P08913 1-465): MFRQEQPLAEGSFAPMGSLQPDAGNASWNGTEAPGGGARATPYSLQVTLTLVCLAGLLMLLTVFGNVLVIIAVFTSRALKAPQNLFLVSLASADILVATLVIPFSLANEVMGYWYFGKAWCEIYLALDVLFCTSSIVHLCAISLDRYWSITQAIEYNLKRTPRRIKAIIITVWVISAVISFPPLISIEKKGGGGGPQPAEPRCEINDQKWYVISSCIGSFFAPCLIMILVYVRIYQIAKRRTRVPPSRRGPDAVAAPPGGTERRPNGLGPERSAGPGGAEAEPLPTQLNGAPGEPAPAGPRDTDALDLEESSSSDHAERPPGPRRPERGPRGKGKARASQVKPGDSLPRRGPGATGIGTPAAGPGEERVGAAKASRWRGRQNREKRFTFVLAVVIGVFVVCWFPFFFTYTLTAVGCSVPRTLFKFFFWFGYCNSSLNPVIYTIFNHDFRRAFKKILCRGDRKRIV

Adrenergic α2B = target: T4, Adrenergic α2B (Homo sapiens, UniProt P18089)
T4 sequence (P18089 1-450): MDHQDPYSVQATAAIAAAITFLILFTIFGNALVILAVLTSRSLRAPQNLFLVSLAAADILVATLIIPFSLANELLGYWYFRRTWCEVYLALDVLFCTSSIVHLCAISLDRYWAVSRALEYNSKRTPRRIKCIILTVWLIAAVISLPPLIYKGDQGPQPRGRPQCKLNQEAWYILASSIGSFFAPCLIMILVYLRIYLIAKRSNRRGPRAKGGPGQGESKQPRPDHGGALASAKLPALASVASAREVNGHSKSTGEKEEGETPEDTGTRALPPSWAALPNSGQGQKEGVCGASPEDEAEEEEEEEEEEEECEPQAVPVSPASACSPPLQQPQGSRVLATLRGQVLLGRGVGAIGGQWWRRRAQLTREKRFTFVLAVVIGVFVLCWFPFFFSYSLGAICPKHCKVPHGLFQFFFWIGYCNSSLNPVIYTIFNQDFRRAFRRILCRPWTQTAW

Serotonin 5-HT2C = target: T5, Serotonin 5-HT2C (Homo sapiens, UniProt P28335)
T5 sequence (P28335 33-458): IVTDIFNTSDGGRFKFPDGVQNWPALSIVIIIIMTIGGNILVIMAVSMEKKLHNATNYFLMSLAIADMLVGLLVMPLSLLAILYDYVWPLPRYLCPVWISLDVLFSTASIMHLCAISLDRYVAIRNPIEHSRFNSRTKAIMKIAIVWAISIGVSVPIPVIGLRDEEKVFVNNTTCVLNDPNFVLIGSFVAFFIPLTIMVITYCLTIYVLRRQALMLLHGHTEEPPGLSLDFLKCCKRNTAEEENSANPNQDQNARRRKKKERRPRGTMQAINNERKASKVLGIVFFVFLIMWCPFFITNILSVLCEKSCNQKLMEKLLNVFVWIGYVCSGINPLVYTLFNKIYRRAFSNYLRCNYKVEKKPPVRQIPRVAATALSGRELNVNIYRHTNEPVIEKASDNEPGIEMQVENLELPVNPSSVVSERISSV

Cc1ccc2c(c1)c1c(n2CCc2ccccc2)CCN(C)C1.Cl [A•HCl, 2,8-dimethyl-5-(2-phenylethyl)-2,3,4,5-tetrahydro-1H-pyrido[4,3-b]indole hydrochloride]
Ki (Adrenergic α1A): 30.2 nM
Ki (Serotonin 5-HT1A): 61 nM
Ki (Adrenergic α2A): 1.77 nM
Ki (Adrenergic α2B): 0.41 nM
Ki (Serotonin 5-HT2C): 1.17 nM
